Assay in all cases: biochemical
Design in all cases: KINOMEscan competition binding panel (Eurofins DiscoverX), single concentration, percent inhibition
What all share (settings): read-out: 15 at 1 µM % inhibition

Assay [1] concerns the target ACVR1B (Homo sapiens, UniProt P36896). In a few lines: (§1)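 KINOMEscan binding panel of >400 kinases, run by Eurofins DiscoverX, with compounds tested at a single concentration of 1 µM.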
Assay [2] has as its target CSNK1G3 (Homo sapiens, UniProt Q9Y6M4). The procedure, abridged:
as §1

Assay [3] addresses EGFR(L858R) (Homo sapiens, UniProt P00533, L858R). The procedure, abridged: as §1
Assay [4] addresses EPHA6 (Homo sapiens, UniProt Q9UF33). In a few lines:
as §1

In assay [5] the target is T1, ERK5 (Homo sapiens, UniProt Q13164).
T1 construct: gene MAPK7
T1 sequence (Q13164 whole entry): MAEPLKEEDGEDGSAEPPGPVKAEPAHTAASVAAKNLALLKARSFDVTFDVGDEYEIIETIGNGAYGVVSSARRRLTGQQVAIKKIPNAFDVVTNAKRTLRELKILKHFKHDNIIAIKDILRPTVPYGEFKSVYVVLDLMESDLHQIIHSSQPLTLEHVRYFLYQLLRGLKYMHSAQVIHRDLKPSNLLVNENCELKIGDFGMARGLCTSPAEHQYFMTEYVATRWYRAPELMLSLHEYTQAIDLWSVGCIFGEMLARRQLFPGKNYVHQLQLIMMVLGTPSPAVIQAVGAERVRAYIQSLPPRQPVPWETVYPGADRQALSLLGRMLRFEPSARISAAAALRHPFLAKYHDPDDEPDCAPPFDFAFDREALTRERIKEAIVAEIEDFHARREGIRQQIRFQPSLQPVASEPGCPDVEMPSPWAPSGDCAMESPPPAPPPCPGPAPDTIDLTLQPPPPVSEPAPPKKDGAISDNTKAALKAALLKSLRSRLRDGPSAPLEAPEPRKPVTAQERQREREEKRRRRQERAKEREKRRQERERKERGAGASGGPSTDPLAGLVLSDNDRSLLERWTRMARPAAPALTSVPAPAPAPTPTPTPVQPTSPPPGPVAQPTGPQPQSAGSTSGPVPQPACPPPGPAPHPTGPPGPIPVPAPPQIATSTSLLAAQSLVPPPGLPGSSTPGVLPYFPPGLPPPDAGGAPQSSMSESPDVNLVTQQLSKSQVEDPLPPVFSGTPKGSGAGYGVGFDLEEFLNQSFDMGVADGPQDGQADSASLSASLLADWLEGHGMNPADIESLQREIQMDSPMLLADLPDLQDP
In a few lines:
as §1

Assay [6] concerns the target FGFR4 (Homo sapiens, UniProt P22455). The procedure, abridged: as §1
In assay [7] the target is FLT4 (Homo sapiens, UniProt P35916). In a few lines:
as §1

Assay [8] addresses T2, JAK3(JH1domain-catalytic) (Homo sapiens, UniProt P52333).
T2 construct: JH1domain-catalytic
The procedure, abridged: as §1

In assay [9] the target is KIT(V559D) (Homo sapiens, UniProt P10721, V559D). In a few lines:
as §1

The target in assay [10] is LATS1 (Homo sapiens, UniProt O95835). The procedure, abridged:
as §1

For assay [11], the target named is LRRK2(G2019S) (Homo sapiens, UniProt Q5S007, G2019S). In a few lines:
as §1

The target in assay [12] is MAP4K5 (Homo sapiens, UniProt Q9Y4K4). In a few lines:
as §1

Assay [13] addresses T3, MEK3 (Homo sapiens, UniProt P46734).
T3 construct: gene MAP2K3
In a few lines: as §1

Assay [14] has as its target T4, MST3 (Homo sapiens, UniProt Q9Y6E0).
T4 construct: gene STK24
The procedure, abridged:
as §1

Assay [15] deals with MYLK4 (Homo sapiens, UniProt Q86YV6). In a few lines:
as §1

In assay [16] the target is T5, NIM1 (Homo sapiens, UniProt Q8IY84).
T5 construct: gene NIM1K
The procedure, abridged:
as §1

Assay [17] addresses T6, OSR1 (Homo sapiens, UniProt O95747).
T6 construct: gene OXSR1
The procedure, abridged: as §1

Assay [18] has as its target T7, PCTK1 (Homo sapiens, UniProt Q00536).
T7 construct: gene CDK16
The procedure, abridged: as §1

Assay [19] concerns the target PLK3 (Homo sapiens, UniProt Q9H4B4). The procedure, abridged:
as §1

Assay [20] addresses PRKD3 (Homo sapiens, UniProt O94806). In a few lines:
as §1

For assay [21], the target named is RIOK2 (Homo sapiens, UniProt Q9BVS4). The procedure, abridged: as §1
Chain of RIOK2 (Q9BVS4 whole entry): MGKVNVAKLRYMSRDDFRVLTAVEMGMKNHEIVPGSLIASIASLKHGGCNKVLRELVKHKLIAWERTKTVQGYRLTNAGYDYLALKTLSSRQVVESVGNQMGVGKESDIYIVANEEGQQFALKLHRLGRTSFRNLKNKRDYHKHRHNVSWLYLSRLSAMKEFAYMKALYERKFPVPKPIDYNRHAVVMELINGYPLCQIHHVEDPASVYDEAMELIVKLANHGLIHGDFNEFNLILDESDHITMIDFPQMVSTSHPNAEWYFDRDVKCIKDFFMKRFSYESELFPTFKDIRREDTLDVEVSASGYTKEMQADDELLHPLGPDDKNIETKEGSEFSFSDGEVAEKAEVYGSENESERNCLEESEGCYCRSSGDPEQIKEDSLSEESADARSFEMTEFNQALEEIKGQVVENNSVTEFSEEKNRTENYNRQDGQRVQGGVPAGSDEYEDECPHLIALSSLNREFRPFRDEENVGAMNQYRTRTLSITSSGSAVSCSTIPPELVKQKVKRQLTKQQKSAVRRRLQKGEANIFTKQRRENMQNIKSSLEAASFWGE
For assay [22], the target named is SRPK3 (Homo sapiens, UniProt Q9UPE1). In a few lines:
as §1

Assay [23] deals with TEC (Homo sapiens, UniProt P42680). In a few lines:
as §1

In assay [24] the target is T8, TRKC (Homo sapiens, UniProt Q16288).
T8 construct: gene NTRK3
In a few lines:
as §1

Chain of LRRK2(G2019S) (Q5S007 whole entry G2019S): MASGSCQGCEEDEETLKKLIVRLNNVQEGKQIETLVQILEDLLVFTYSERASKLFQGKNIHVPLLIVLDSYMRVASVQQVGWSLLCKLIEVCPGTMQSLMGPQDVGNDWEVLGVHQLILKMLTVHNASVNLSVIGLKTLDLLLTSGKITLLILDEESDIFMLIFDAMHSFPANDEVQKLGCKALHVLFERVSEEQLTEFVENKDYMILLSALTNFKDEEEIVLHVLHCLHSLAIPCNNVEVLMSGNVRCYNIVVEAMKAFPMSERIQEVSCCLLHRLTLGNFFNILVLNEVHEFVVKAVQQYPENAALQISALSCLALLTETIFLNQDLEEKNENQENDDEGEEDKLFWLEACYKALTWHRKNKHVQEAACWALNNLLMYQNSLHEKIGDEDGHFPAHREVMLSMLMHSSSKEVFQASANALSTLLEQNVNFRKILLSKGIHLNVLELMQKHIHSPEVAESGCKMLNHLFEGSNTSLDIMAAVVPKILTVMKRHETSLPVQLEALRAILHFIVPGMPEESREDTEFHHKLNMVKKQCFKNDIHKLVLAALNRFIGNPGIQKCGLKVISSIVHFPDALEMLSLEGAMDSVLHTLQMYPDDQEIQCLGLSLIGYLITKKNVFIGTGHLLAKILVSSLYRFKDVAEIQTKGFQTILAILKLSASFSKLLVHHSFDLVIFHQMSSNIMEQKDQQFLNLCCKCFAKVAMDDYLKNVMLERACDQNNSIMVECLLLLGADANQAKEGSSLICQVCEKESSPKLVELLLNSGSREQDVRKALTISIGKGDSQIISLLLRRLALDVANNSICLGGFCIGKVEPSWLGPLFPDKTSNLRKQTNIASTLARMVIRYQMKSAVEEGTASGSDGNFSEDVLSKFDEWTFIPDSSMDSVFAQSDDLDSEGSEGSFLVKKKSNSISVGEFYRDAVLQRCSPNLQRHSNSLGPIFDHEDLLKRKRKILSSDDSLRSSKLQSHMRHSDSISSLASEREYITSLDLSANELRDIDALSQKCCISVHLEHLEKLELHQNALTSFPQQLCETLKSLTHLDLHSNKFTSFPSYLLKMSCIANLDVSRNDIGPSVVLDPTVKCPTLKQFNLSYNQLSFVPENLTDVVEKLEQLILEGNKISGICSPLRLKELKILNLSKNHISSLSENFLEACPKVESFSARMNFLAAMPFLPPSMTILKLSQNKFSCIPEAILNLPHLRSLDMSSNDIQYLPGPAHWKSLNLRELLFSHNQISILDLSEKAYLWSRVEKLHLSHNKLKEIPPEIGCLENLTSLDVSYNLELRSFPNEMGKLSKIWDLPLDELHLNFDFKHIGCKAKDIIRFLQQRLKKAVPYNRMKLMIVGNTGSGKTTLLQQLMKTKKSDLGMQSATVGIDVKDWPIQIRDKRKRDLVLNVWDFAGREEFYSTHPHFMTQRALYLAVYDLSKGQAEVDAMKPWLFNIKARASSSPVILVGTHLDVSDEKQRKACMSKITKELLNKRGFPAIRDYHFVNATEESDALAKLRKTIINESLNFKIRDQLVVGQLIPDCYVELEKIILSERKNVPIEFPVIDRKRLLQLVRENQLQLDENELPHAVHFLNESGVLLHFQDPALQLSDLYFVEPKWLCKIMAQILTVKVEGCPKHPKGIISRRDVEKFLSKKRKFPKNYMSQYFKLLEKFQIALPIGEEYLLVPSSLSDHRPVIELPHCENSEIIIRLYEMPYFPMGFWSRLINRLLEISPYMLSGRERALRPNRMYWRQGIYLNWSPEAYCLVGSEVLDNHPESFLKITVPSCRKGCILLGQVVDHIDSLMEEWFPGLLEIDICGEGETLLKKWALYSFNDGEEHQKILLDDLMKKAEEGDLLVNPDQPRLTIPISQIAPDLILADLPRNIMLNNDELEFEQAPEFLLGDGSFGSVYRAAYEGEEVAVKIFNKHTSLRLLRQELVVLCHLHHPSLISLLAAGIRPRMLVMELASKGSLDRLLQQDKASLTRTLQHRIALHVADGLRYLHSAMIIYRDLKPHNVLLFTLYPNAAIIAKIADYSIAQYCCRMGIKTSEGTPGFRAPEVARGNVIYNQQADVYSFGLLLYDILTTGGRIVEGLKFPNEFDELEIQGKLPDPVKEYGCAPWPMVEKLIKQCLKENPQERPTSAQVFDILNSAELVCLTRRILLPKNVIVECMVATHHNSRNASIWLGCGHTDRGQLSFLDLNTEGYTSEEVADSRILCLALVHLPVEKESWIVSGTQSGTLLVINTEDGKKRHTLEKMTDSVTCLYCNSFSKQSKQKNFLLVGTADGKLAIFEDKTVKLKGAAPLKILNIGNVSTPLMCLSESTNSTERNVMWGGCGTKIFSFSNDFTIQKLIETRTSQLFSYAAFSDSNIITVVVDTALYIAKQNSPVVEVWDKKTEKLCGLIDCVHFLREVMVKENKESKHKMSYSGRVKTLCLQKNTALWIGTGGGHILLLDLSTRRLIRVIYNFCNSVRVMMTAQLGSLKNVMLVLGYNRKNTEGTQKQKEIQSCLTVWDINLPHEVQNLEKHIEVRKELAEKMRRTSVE
Chain of TEC (P42680 whole entry): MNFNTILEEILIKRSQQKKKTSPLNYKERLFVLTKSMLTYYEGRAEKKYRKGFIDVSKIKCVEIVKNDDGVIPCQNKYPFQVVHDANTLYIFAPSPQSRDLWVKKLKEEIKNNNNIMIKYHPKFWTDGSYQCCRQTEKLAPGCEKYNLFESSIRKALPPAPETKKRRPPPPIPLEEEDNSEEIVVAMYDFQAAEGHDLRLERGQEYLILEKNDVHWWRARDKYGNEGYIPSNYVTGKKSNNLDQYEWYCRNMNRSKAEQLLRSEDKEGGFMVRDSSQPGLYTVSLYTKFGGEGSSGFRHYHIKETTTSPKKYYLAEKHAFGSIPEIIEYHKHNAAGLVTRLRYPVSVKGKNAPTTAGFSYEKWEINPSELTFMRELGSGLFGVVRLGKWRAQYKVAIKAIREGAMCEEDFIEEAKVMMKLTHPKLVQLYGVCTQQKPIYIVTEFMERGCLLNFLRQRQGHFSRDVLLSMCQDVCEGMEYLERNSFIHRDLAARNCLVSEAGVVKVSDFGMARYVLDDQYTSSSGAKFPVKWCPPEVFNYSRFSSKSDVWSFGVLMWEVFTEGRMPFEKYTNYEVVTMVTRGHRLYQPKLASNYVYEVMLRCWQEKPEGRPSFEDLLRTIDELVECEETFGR
Chain of SRPK3 (Q9UPE1 whole entry): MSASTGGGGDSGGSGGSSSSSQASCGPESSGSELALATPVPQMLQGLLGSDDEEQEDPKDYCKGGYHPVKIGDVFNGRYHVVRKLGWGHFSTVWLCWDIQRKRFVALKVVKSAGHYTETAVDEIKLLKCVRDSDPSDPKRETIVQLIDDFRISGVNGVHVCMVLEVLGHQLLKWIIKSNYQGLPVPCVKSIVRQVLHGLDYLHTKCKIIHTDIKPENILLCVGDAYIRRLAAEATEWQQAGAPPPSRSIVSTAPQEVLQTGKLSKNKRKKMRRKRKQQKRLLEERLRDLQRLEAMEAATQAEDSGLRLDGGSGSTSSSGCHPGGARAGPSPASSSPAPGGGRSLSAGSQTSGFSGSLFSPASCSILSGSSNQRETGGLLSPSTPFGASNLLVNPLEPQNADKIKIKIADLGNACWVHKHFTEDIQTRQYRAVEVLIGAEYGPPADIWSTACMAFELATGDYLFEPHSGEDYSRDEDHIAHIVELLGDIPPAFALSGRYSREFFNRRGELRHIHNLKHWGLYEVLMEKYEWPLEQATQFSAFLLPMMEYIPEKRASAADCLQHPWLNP

As usually defined, the inhibition is the relative decrease from the control value, in per cent. Regarding `CNS(=O)(=O)c1ccc(N(C)C)c(Nc2nc(C)nc3cc(OC)c(OC)cc23)c1` [compound 15, 3-((6,7-dimethoxy-2-methylquinazolin-4-yl)amino)-4-(dimethylamino)-N-methylbenzenesulfonamide], the inhibition at 1 µM in assay [1] amounted to 0%; in [2], 0%; in assay [3] it was 4%; in assay [4], 0%; in [5], 5%; in assay [6] it was 4%. Further, the inhibition at 1 µM in assay [7] amounted to 0%; in [8], 10%; in [9] it was 0%; in [10] it was 14%; in [11], 8%; in assay [12] it was 3%. Also, the inhibition at 1 µM is 22% in assay [13]; 0% in assay [14]; 0% in assay [15]; 27% in [16]; 42% in [17]; 22% in assay [18]. For the same molecule, the inhibition at 1 µM came out at 8% in [19]; 0% in [20]; 9% in assay [21]; 1% in assay [22]; 13% in assay [23]; 22% in assay [24].

(Values after PMC7180948, “New Insights into 4-Anilinoquinazolines as Inhibitors of Cardiac Troponin I–Interacting Kinase (TNNi3K)” (Molecules, 2020).)
